IC50 and AC50 data for twelve compounds are collected here from US20240400584A1, “COMPOUNDS AND METHODS FOR MODULATING SPLICING” (REMIX THERAPEUTICS INC., priority 2021, published 2024).

The subject of one experiment is HTT. Put plainly: Gene panel canonical junction qPCR assay, HTT CJ mRNA (Table 7). It is filed as cell-based, human. As to conditions: Homo sapiens, read-out: HTT CJ mRNA decrease IC50. The procedure, abridged:
(§1)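 A673 or K562 cells were treated with compound; lysates went through cDNA synthesis and RT-qPCR, with a probe or primer spanning the canonical exon–exon junction. ΔCt vs housekeeper (GAPDH, GUSB or PPIA), normalized to DMSO (2^(−ΔΔCt)), converted to percentage response; IC50 from 4-parameter logistic fit of CJ decrease.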

Experiment [1] deals with MYB. Put plainly: Gene panel canonical junction qPCR assay, MYB CJ mRNA (Table 7). The class given is cell-based. As to conditions: Homo sapiens, read-out: MYB CJ mRNA decrease IC50. In short, it runs like this:
as §1
In general terms: Real-time PCR tracks product formation cycle by cycle.

In experiment [2] the test system is MYB. Put plainly: RT-qPCR splicing assay, MYB AJ/CJ mRNA. The class given is cell-based. The settings on record: Homo sapiens, A673 or K562 cells, 24 hours; for IC50: decrease in canonical junction mRNA; for AC50: increase in alternative junction mRNA. The procedure, abridged: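 Following 24 h compound exposure at 37 °C (11 points, 3-fold, highest 10 uM; DMSO ≤0.25%), A673 or K562 lysates underwent RT-qPCR for exon-inclusion (AJ) and canonical (CJ) junctions of HTT and MYB. Relative quantification used housekeeping-gene ΔCt and DMSO-normalized ΔΔCt, converted to percentage response.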

In another experiment the test system is Target C. Put plainly: Gene panel canonical junction qPCR assay, Target C CJ mRNA (Table 7). It is filed as cell-based, human. The settings on record: Homo sapiens, read-out: Target C CJ mRNA decrease IC50. The procedure, abridged:
as §1

Structures are written as SMILES.

As a reminder, the IC50 is the concentration that gives 50% inhibition. As usually defined, the AC50 is the concentration giving half of the maximal activity seen. Low values mean activity at low concentration, high ones activity only at high concentration. On to `COc1cc(-c2ccc3c(c2)COc2nc(N(C)[C@@H]4C[C@H]5CC[C@@H](C4)N5)ccc2-3)cnn1` [Compound 159], for which the IC50 with HTT, with MYB [1], in the experiment with MYB [2] and in the experiment on Target C was less than 0.1 µM each time. The compound further came in with an AC50 in the experiment with MYB [2] of less than 0.1 µM.

`CN(c1ccc2c(n1)OCc1cc(-c3cnn(C)c(=O)c3)ccc1-2)[C@@H]1C[C@H]2CC[C@@H](C1)N2` [Compound 160]: the IC50 in the experiment on HTT is less than 0.1 µM; with MYB [1], 0.1 to 1 µM; in the experiment with MYB [2] it was 0.1 to 1 µM; in the experiment on Target C, less than 0.1 µM. The compound also showed a concentration at half-maximal activity (AC50) with MYB [2] of less than 0.1 µM.

Take `CN(c1ccc2c(n1)OCc1cc(-c3cnc(=O)[nH]c3)ccc1-2)[C@@H]1C[C@H]2CC[C@@H](C1)N2` [Compound 161]: the IC50 in the experiment with HTT, in the experiment on MYB [1], in the experiment on MYB [2] and in the experiment on Target C was greater than 10 µM in each case. This compound also displayed an AC50 with MYB [2] greater than 10 µM.

For the compound `CN(c1ccc2c(n1)OCc1cc(-c3cc(=O)n(C)cn3)ccc1-2)[C@@H]1C[C@H]2CC[C@@H](C1)N2` [Compound 162], the IC50 in the experiment with HTT was less than 0.1 µM; in the experiment on MYB [1], 0.1 to 1 µM; with MYB [2], 0.1 to 1 µM; in the experiment on Target C, less than 0.1 µM. In the experiment with MYB [2], the AC50 was less than 0.1 µM.

Take `CN(c1ccc2c(n1)OCc1cc(-n3ccnc3)ccc1-2)[C@@H]1C[C@H]2CC[C@@H](C1)N2` [Compound 163]: the half-maximal inhibitory concentration (IC50) with HTT is less than 0.1 µM; in the experiment on MYB [1], 0.1 to 1 µM; with MYB [2] it was 0.1 to 1 µM; in the experiment with Target C, 0.1 to 1 µM. The compound also returned an AC50 in the experiment with MYB [2] of less than 0.1 µM.

Consider `Cc1cn(-c2ccc3c(c2)COc2nc(N(C)[C@@H]4C[C@H]5CC[C@@H](C4)N5)ccc2-3)cn1` [Compound 164], for which the IC50 with HTT was less than 0.1 µM; with MYB [1] it was 0.1 to 1 µM; in the experiment with MYB [2], 0.1 to 1 µM; in the experiment on Target C, 0.1 to 1 µM. In addition, the AC50 with MYB [2] was in the range of 0.1 to 1 µM.

For `CC1(C)CC(Nc2ccc3c(n2)OCc2cc(-n4cccn4)ccc2-3)CC(C)(C)N1` [Compound 165], the IC50 in the experiment with HTT is 0.1 to 1 µM; in the experiment on MYB [1] it was 1 to 10 µM; in the experiment on MYB [2], 1 to 10 µM; in the experiment on Target C, 0.1 to 1 µM. The compound further had an AC50 with MYB [2] of 0.1 to 1 µM.

Take `c1cnn(-c2ccc3c(c2)COc2nc(NC4CNC4)ccc2-3)c1` [Compound 166]: the IC50 in the experiment on HTT, with MYB [1], with MYB [2] and with Target C was greater than 10 µM throughout. Also, the AC50 in the experiment with MYB [2] is greater than 10 µM.

For the compound `Cc1cnc(-c2ccc3c(c2)COc2nc(N(C)[C@@H]4C[C@H]5CC[C@@H](C4)N5)ccc2-3)o1` [Compound 206], the IC50 in the experiment with HTT was 0.1 to 1 µM; in the experiment with MYB [1], 0.1 to 1 µM; in the experiment with MYB [2], 0.1 to 1 µM; in the experiment on Target C it was 1 to 10 µM. The AC50 in the experiment with MYB [2] fell in the range of 1 to 10 µM.

Take `c1cc2c(cc1-c1cn[nH]c1)COc1nc(N3CCC34CCNC4)ccc1-2` (stereo not drawn) [Compound 207]: the IC50 was greater than 10 µM in the experiment with HTT, 1 to 10 µM in the experiment on MYB [1], 1 to 10 µM with MYB [2] and greater than 10 µM in the experiment on Target C. This compound returned an AC50 in the experiment on MYB [2] of 0.1 to 1 µM.

Take `Cc1ncc(-c2ccc3c(c2)COc2nc(O[C@@H]4C[C@H]5C[C@@H](C4)N5)ccc2-3)s1` [Compound 208]: the IC50 in the experiment with HTT was less than 0.1 µM; with MYB [1] it was 0.1 to 1 µM; with MYB [2], 0.1 to 1 µM; with Target C, 0.1 to 1 µM. The AC50 with MYB [2] fell in the range of 0.1 to 1 µM.

On to `c1cc2c(cc1-c1cn[nH]c1)COc1nc(O[C@@H]3C[C@H]4CC[C@@H](C3)N4)ccc1-2` [Compound 218], for which the half-maximal inhibitory concentration (IC50) in the experiment with HTT was less than 0.1 µM; in the experiment on MYB [1], 0.1 to 1 µM; with MYB [2] it was 0.1 to 1 µM; in the experiment with Target C, 0.1 to 1 µM. This compound also registered a concentration at half-maximal activity (AC50) with MYB [2] of 0.1 to 1 µM.
